Data reported in patent EP0019739A1, “2-Aminoalkyl-5-pyridinoles, process for their preparation and pharmaceutical preparations containing them” (CIBA-GEIGY AG, priority 1979, dated 1980).

Assay: Pharmacological activity, test not specified
Settings: compared with the racemic dihydrochloride (starting material of Example 2) and the levorotatory salt

## CC(C)NC(C)Cc1ccc(O)cn1.Cl.Cl (stereo not shown) [rechtsdrehende Antipode, 2-(2-Isopropylaminopropyl)-5-pyridinol-dihydrochlorid]
  pharmakologisch aktiv: weniger aktiv
